Reference: patent publication US8957093B2, “N-biphenylmethylindole modulators of PPARG” (The Scripps Research Institute, priority 2011, dated 2015)
Like-named read-outs stand apart in the source and are kept apart here.

Legend:
[1] = molecular target: PPARG (murine PPARg2 or full-length human PPARG, 3xPPRE-luciferase reporter) (Homo sapiens, UniProt P37231); assay: Cell-based PPRE-luciferase transactivation assay in COS-1 cells
Procedure: (§1) Cell-Based Transactivation Assay:
(§2) PPRE is a DNA that contains a binding site for PPARG; thus PPRE is a PPAR response element, used herein as a promoter reporter. The binding site is a DR1 response element with the sequence AGGTCA repeated 3 times in tandem and then fused to a construct for luciferase.
(§3) Thus, PPRE is the basis of the cell based transactivation assay described below. The plasmid DNA is co-transfected along with a plasmid for PPARG into COS-1 cells. After an overnight incubation, cells are treated with DMSO or compounds.
(§4) Confluent COS-1 cells were transfected with 4.5 μg murine PPARg2-pSV Sport or full-length human PPAR9-pSport6, 4.5 μg 3×PPRE-luciferase reporter and 27 μL X-treme Gene 9 transfection reagent in serum-free opti-mem media (Gibco), followed by overnight incubation at 37° C., 5% CO2. Transfected cells were plated in white Perkin Elmer 384-well plates and incubated 4 hours. […] After 18 hour incubation, treated cells were developed with Brite Lite Plus (Perkin Elmer) and read in 384-well Luminescence Perkin Elmer EnVision Multilabel plate reader. Graphs were plotted in triplicate in GraphPad Prism Software as fold change of treated cells over DMSO control cells.

[2] = system: PPARG (murine PPARg2 or full-length human PPARG, 3xPPRE-luciferase reporter); assay: as above; details: for PPRE transactivation (% in parentheses): rosiglitazone = 100%; for % transactivation (PPRE): PPRE transactivation data, at 10 μM
Procedure: as §1, §2, §3, §4

GST-PPARG-LBD = GST-PPARG-LBD (Homo sapiens (Human), UniProt P37231); assay: Lanthascreen PPARG competitive binding assay (Invitrogen, TR-FRET); details: NA = not active, inc = incomplete curve, read-out: IC50 (nM) Lantha
Chain of GST-PPARG-LBD (P37231 238-503): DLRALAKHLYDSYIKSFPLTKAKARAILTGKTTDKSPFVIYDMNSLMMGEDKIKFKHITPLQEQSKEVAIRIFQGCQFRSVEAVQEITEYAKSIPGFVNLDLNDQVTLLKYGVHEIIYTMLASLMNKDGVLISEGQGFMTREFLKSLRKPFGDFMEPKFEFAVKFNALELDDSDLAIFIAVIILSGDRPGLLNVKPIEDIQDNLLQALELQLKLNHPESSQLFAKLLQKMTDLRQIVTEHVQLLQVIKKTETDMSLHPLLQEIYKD
Outline: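 Values are fold change in 520 nm/490 nm FRET ratio relative to a 2% DMSO no-ligand control, excitation 340 nm. Compound dilutions starting at 10 μM competed against 5 nM Fluormone Pan-PPAR Green for GST-PPARG-LBD bound by 5 nM Tb anti-GST antibody. Incubation 2 h in the dark in assay buffer C, triplicate wells.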

[3] = system: obese, insulin-resistant mice; assay: Hyperinsulinemic-euglycemic clamp in obese mice; type: in vivo, mouse
Excerpt: The most accurate method for measuring changes in insulin sensitivity is the hyperinsulinemic-euglycemic clamp (DeFronzo et al., 1979). In this method, animals are exposed to an elevated concentration of insulin while the amount of glucose infused is adjusted in real time to maintain fixed, or clamped glycemia.

[4] = system: obese, insulin-resistant mice; assay: Wild-type mice fed a calorie dense diet high in sugar and fat (obese, insulin-resistant)
RAW264.7 cells = assay: Inflammatory cytokine production in LPS stimulated RAW264.7 cells; type: cell-based
[5] = Pharmacokinetic properties; details: in vivo
[6] = molecular target: Rb protein (cdk5 substrate) (Homo sapiens (Human), UniProt Q00535); assay: cdk5 phosphorylation of Rb protein in vitro (Western blot); type: biochemical
Excerpt: (§5) In order to develop a suitable ligand, we optimized compounds for (i) high binding affinity for PPARG, (ii) blocking the cdk5-mediated PPARG phosphorylation and (iii) lacking classical agonism. Classical agonism is defined here, as is standard in the nuclear receptor field, as an increased level of transcription through a tandem PPAR response element luciferase reporter (PPRE::Luc).

MC3T3-E1 cells = assay: Mineralization of osteoblastic cells (Alizarin red S staining, osteoblast gene expression); type: cell-based, mouse; details: for mineralization (calcification): Alizarin red S staining
Excerpt: Moreover, the expression of genes involved in the differentiation of these cells was impaired (alkaline phosphatase, RANKL, type I collagen).

ob/ob mouse = assay: Leptin-deficient ob/ob mouse model; details: ob/ob mice; for insulin levels / fasting glucose levels: after five days of treatment; for fasting glucose levels: vehicle 110±13; for body weight: longer treatment (11 days)
Procedure: A more severe model of obesity is the leptin-deficient ob/ob mouse. These animals are very obese and insulin-resistant, with substantial compensatory hyperinsulinemia. […] Functional analyses were performed at days 5 and 11 after the start of treatments.
Longer treatments with these drugs allowed an assessment of certain side effects.

differentiated fat cells = assay: cdk5-mediated phosphorylation of PPARG in differentiated fat cells; type: cell-based
Excerpt: as §5

pre-adipose cell lines = assay: Fat cell differentiation (Oil Red O staining, adipogenic gene expression); type: cell-based; details: for fat cell differentiation / lipid accumulation: Oil Red O staining; for expression of aP2, C/EBPα and Glut4: genes linked to adipogenesis
[7] = PPRE-luciferase, COS-1 cells, NA = not active, read-out: EC50 (nM) PPRE
[8] = Lanthascreen competitive binding
[9] = injected twice daily for 5 days

Chain of PPARG (murine PPARg2 or full-length human PPARG, 3xPPRE-luciferase reporter) (Homo sapiens, UniProt P37231) (P37231 whole entry, looked up): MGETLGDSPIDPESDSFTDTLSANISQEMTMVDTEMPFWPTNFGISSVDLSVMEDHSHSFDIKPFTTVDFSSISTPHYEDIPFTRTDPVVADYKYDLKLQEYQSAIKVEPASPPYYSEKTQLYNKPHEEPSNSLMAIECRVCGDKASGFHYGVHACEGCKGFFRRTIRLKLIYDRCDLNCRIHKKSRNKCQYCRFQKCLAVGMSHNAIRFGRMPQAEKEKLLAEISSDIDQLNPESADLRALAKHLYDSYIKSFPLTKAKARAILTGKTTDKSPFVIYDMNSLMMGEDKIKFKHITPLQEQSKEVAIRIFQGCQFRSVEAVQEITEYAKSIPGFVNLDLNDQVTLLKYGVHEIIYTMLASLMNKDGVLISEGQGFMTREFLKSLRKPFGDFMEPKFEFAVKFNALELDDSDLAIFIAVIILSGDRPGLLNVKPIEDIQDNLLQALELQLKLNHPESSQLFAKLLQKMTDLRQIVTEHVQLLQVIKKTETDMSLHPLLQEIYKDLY

Cc1c(C)n(Cc2ccc(-c3ccccc3C(=O)O)cc2)c2ccc(C(=O)N[C@H]3COc4ccccc4C3)cc12 [Example 249, (R)-4′-((5-(chroman-3-ylcarbamoyl)-2,3-dimethyl-1H-indol-1-yl)methyl)-[1,1′-biphenyl]-2-carboxylic acid]
EC50 [1, 7]: 80 nM | PPRE transactivation (% in parentheses) [2]: (1%) | IC50 (GST-PPARG-LBD; [8]): 22 nM

Cc1c(C)n(Cc2ccc(-c3ccccc3C(=O)O)cc2)c2ccc(C(=O)NCc3ccccc3Br)cc12 [Example 118, 4′-((5-((2-Bromobenzyl)carbamoyl)-2,3-dimethyl-1H-indol-1-yl)methyl)-[1,1′-biphenyl]-2-carboxylic acid]
EC50 [2, 7]: 86 nM | PPRE transactivation (% in parentheses) [2]: (8%) | IC50 (GST-PPARG-LBD; [8]): 17 nM

Cc1c(C)n(Cc2ccc(-c3ccccc3C(=O)O)cc2)c2ccc(C(=O)NCC3COc4ccccc4C3)cc12 (stereo not drawn) [Example 87, 4′-((5-(chroman-3-ylmethylcarbamoyl)-2,3-dimethyl-1H-indol-1-yl)methyl)biphenyl-2-carboxylic acid]
EC50 [2, 7]: 200 nM | PPRE transactivation (% in parentheses) [2]: (18%) | IC50 (GST-PPARG-LBD; [8]): 17 nM

Cc1c(C)n(Cc2ccc(-c3ccccc3C(=O)O)cc2)c2ccc(C(=O)N[C@@H](C)c3ccc([N+](=O)[O-])cc3)cc12 [SR1664]
plasma FFA ([3]; basal and clamped conditions): reduction | glucose uptake in the adipose tissue ([3]; clamp): significantly enhanced | suppression of endogenous hepatic glucose production (EGP) ([3]; clamp): increased | whole body glucose utilization ([3]; clamp): not increased | glucose infusion rate (GIR) needed to maintain euglycemia ([3]; versus vehicle alone): significantly greater | body weight compared to vehicle treated mice [4, 9]: without significant differences | cdk5-mediated phosphorylation of PPARG at serine 273 in adipose tissue [4, 9]: dose-dependent decrease | fasting insulin levels [4, 9]: significant reduction | glucose levels [4, 9]: trend toward lowered (and normalized) glucose levels | insulin resistance as computed by HOMA-IR [4, 9]: clear and dose-dependent improvement | expression of adiponectin and adipsin ([4]; mouse, in vivo): induced | production of inflammatory cytokines (RAW264.7 cells): inhibition of production of inflammatory cytokines | pharmacokinetic properties [5]: adequate | transcriptional agonism on tandem PPRE::Luc reporter ([2]; compared to rosiglitazone or MRL24): […] | effect on cdk5 phosphorylation of the Rb protein [6]: no effect | expression of osteoblast differentiation genes (alkaline phosphatase, RANKL, type I collagen) (MC3T3-E1 cells): did not affect | mineralization (calcification) (MC3T3-E1 cells): did not affect | glucose tolerance test (ob/ob mouse): markedly improved | insulin levels (ob/ob mouse): substantially reduced | fasting glucose levels (ob/ob mouse): 90 ± 12 mg/dL | body fat / adiposity by MRI (ob/ob mouse; longer treatment): no decrease in the hematocrit or change in body adiposity | hematocrit (fluid retention) (ob/ob mouse; longer treatment): no decrease | body weight (ob/ob mouse): did not cause the weight gain | blocking cdk5-mediated phosphorylation of PPARG in differentiated fat cells (differentiated fat cells): effective at blocking | fat cell differentiation / lipid accumulation (pre-adipose cell lines): did not stimulate increased lipid accumulation or changes in morphology | expression of aP2, C/EBPα and Glut4 (pre-adipose cell lines): little or no change

Cc1c(C)n(Cc2ccc(-c3ccccc3C(=O)O)cc2)c2ccc(C(=O)NCc3cccc(N)c3)cc12 [Example 80, 4′-((5-(3-aminobenzylcarbamoyl)-2,3-dimethyl-1H-indol-1-yl)methyl)biphenyl-2-carboxylic acid]
EC50 [2, 7]: 2700 nM | PPRE transactivation (% in parentheses) [2]: (20%) | IC50 (GST-PPARG-LBD; [8]): 13 nM

Cc1c(C)n(Cc2ccc(-c3ccccc3C(=O)O)cc2)c2ccc(C(=O)N[C@@H]3C[C@H]3c3ccccc3)cc12 [Example 294, 4′-((2,3-Dimethyl-5-(((1R,2S)-2-phenylcyclopropyl)carbamoyl)-1H-indol-1-yl)methyl)-[1,1′-biphenyl]-2-carboxylic acid]
EC50 ([1]; PPRE transactivation data, read-out: PPRE EC50): 517 nM | % transactivation (PPRE) [2]: (28%) | IC50 (GST-PPARG-LBD; Lanthascreen PPARG competitive binding): 22 nM

CN(CCOc1ccc(CC2SC(=O)NC2=O)cc1)c1ccccn1 (stereo not drawn) [rosiglitazone, reference compound]
production of inflammatory cytokines (RAW264.7 cells): inhibition of production of inflammatory cytokines | activation of the PPRE reporter ([2]; COS-1 cells): […] | % transactivation (PPRE) [2]: […] | EC50 ([2]; read-out: EC50 (nM) PPRE): […] | EC50 ([2]; read-out: PPRE EC50): […] | PPRE transactivation (% in parentheses) [2]: […] | effect on cdk5 phosphorylation of the Rb protein [6]: no effect | expression of osteoblast differentiation genes (alkaline phosphatase, RANKL, type I collagen) (MC3T3-E1 cells): impaired | mineralization (calcification) (MC3T3-E1 cells): reduced the mineralization | glucose tolerance test (ob/ob mouse): markedly improved | insulin levels (ob/ob mouse): substantially reduced | fasting glucose levels (ob/ob mouse): 88 ± 13 mg/dL | body fat / adiposity by MRI (ob/ob mouse; longer treatment): increase in body fat | concentration of hemoglobin (ob/ob mouse; longer treatment): […] | hematocrit (fluid retention) (ob/ob mouse; longer treatment): characteristic decrease | body weight (ob/ob mouse): increase in body weight | fat cell differentiation / lipid accumulation (pre-adipose cell lines): potently stimulated fat cell differentiation | expression of aP2, C/EBPα and Glut4 (pre-adipose cell lines): increased expression

COCCNC(=O)c1ccc2c(c1)c(C)c(C)n2Cc1ccc(-c2ccccc2C(=O)O)cc1 [Example 92, 4′-((5-(2-methoxyethylcarbamoyl)-2,3-dimethyl-1H-indol-1-yl)methyl)biphenyl-2-carboxylic acid]
EC50 [2, 7]: > 1000 nM | PPRE transactivation (% in parentheses) [2]: (9%) | IC50 (GST-PPARG-LBD; [8]): 17 nM

Cc1c(C)n(Cc2ccc(-c3ccccc3C(=O)O)cc2)c2ccc(C(=O)NCc3ccc(-c4ccccc4)cc3)cc12 [Example 102, 4′-((5-(biphenyl-4-ylmethylcarbamoyl)-2,3-dimethyl-1H-indol-1-yl)methyl)biphenyl-2-carboxylic acid]
EC50 [2, 7]: 1.2 nM | PPRE transactivation (% in parentheses) [2]: (29%) | IC50 (GST-PPARG-LBD; [8]): 247 nM

Cc1cc2cc(C(=O)N[C@@H](C)c3ccc(Br)cc3)ccc2n1Cc1ccc(-c2ccccc2C(=O)O)cc1 [Example 135, (S)-4′-((5-((1-(4-Bromophenyl)ethyl)carbamoyl)-2-methyl-1H-indol-1-yl)methyl)-[1,1′-biphenyl]-2-carboxylic acid]
PPRE transactivation (% in parentheses) [2]: (0%) | IC50 (GST-PPARG-LBD; [8]): 80 nM

Cc1c(C)n(Cc2ccc(-c3ccccc3C(=O)O)cc2)c2ccc(C(=O)NCc3ccc4c(c3)OCO4)cc12 [Example 78, 4′-((5-(benzo[d][1,3]dioxol-5-ylmethylcarbamoyl)-2,3-dimethyl-1H-indol-1-yl)methyl)biphenyl-2-carboxylic acid]
EC50 [2, 7]: 1000 nM | PPRE transactivation (% in parentheses) [2]: (30%) | IC50 (GST-PPARG-LBD; [8]): 33 nM

COc1ccc(CNC(=O)c2ccc3c(c2)c(C)c(C)n3Cc2ccc(-c3ccccc3C(=O)O)cc2)c(OC)c1 [compound 20, 4′-((5-(2,4-Dimethoxybenzylcarbamoyl)-2,3-dimethyl-1H-indol-1-yl)methyl)biphenyl-2-carboxylic acid]
PPRE transactivation (% in parentheses) [2]: (0%) | IC50 (GST-PPARG-LBD; [8]): 16 nM
